Values of other authors, collected in publication PMC4499460 (The Journal of organic chemistry, 2015).

Conditions: in 1 N H2SO4

In the case of `C=C[C@H]1CN2CC[C@H]1C[C@H]2[C@H](O)c1ccnc2ccc(OC)cc12.O=S(=O)(O)O` [quinine bisulfate], the “ϕf of quantum yield reference” value is given as 0.54.
